# Biological target: S1P1 (Homo sapiens (Human), UniProt P21453)
# Assay: 35S-GTPγS binding assay, S1P1 membranes
# Assay type: biochemical
# Conditions: membranes from CHO cells expressing S1P1; read-out: S1P1 GTPyS EC50
# Experimental: Membranes were prepared from CHO cells expressing S1P1 or S1P3 for use in ligand and […] binding studies. Cells were suspended in 50 mM TRIS, pH 7.4, 2 mM EDTA, 250 mM Sucrose (buffer A) and 1× Complete protease inhibitor cocktail (Roche), and disrupted at 4° C. by nitrogen decompression using a cell disruption bomb (Parr Instrument). Following centrifugation at 1000 RPM for 10 min at 4° C., the supernatant was suspended in buffer A and centrifuged again at 19000 RPM for 60 min at 4° C. The pellet was then suspended in 10 mM HEPES, pH 7.4, 1 mM EDTA, 250 mM Sucrose (Buffer B), and 1× Complete EDTA-free protease inhibitor cocktail and homogenized using a potter. Membranes were flash frozen in liquid nitrogen and stored at −80° C. [33P]sphingosine 1-phosphate (3000 Ci/mmol; American Radiolabeled Chemicals, Inc.) was added to test compounds in DMSO. […] Binding was performed for 60 min at room temperature on a shaker and bound radioactivity was measured on a PerkinElmer 1450 MicroBeta counter. Specific binding was calculated by subtracting remaining radioactivity in the presence of 1000-fold excess of unlabeled S1P. Binding data were analyzed using the GraphPad Prism program.
# The assay was initiated with the addition of 20 μl of 1.5 nM [35S]-GTPγS (1100 Ci/mmol; GE Healthcare) in assay buffer. After 60 min incubation at 30° C. on a shaker, plates were centrifuged for 10 min at 2000 RPM. Supernatant was discarded and membrane bound radioactivity was measured on a PerkinElmer 1450 MicroBeta counter. Triplicate samples were averaged and expressed as % response relative to SIP activation in absence of compound (n=2).
# S1P1, sequence (P21453 whole entry, species assumed): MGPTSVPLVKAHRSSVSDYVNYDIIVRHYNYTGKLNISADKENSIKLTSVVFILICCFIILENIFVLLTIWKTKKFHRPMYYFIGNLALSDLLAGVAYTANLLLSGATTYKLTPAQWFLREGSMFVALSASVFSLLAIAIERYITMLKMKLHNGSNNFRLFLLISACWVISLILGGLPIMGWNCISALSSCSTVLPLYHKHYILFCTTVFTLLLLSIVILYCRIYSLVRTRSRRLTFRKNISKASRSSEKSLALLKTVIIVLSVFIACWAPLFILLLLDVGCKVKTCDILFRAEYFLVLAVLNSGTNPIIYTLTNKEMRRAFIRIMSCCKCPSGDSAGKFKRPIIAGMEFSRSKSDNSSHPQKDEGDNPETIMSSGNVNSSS
row,SMILES,EC50
1,NC(=O)c1ccc(NC(=O)c2cc(N(CC3CC3)C3CCCCC3)ncn2)cc1 [Example 1-50],73 nM
2,CCCN(CC1CC1)c1cc(C(=O)Nc2ccc(CN3CCOCC3)cc2C)ncn1 [Example 1-93],1470 nM
3,O=C(Nc1ccc(CN2CCNCC2)cc1)c1cc(N(CC2CC2)C2CCCCC2)ncn1 [Example 1-78],328 nM
4,O=C(Nc1ccc(S(=O)(=O)NCC(O)CO)cc1)c1cc(N(CC2CC2)C2CCCCC2)ncn1 (centres unmarked) [Example 1-51],60 nM
5,COCCN(c1cc(C(=O)Nc2ccc3[nH]ncc3c2)ncn1)C(C)C [Example 1-87],216 nM
6,CCCN(CC1CC1)c1cc(C(=O)Nc2ccc(CN(C)C)cc2C)ncn1 [Example 1-94],265 nM
7,COCCN(CCOC)c1cc(C(=O)Nc2ccc3[nH]ncc3c2)ncn1 [Example 1-70],1110 nM
8,Cc1cc(O)ccc1NC(=O)c1cc(NC2CCCCC2C)ncn1 (centres unmarked) [Example 1-24],1680 nM
9,O=C(Nc1ccc(O)c(F)c1)c1cc(NC2CCCCC2)ncn1 [Example 1-14],1580 nM
10,CCCN(CC1CC1)c1cc(C(=O)Nc2ccc3c(c2)CNCC3)ncn1 [Example 1-92],236 nM
11,CCC(NCc1ccc(NC(=O)c2cc(N(CC3CC3)C3CCCCC3)ncn2)cc1)C(=O)OC (centres unmarked) [Example 1-74],2160 nM
12,COCCN(c1cc(C(=O)Nc2ccc3[nH]ncc3c2)ncn1)C1CCCCC1 [Example 1-66],32 nM
13,CCCN(CC1CC1)c1cc(C(=O)Nc2ccc(CN)cc2)ncn1 [Example 1-88],101 nM
14,COCCN(CC1CC1)c1cc(C(=O)Nc2ccc(CN)cc2)ncn1 [Example 1-89],1490 nM
15,COc1cc(NS(C)(=O)=O)ccc1NC(=O)c1cc(NC2CCCCC2)ncn1 [Example 1-27],374 nM
16,CCNS(=O)(=O)c1ccc(NC(=O)c2cc(N(C)C3CCCCC3)ncn2)cc1 [Example 1-31],2000 nM

row,SMILES,EC50
1,CC(C)(C)OC(=O)CNCc1ccc(NC(=O)c2cc(N(CC3CC3)C3CCCCC3)ncn2)cc1 [Example 1-73],724 nM
2,CN(c1cc(C(=O)Nc2ccnc3ccccc23)ncn1)C1CCCCC1 [Example 1-43],1350 nM
3,NS(=O)(=O)c1ccc(NC(=O)c2cc(NC3CCCCC3)ncn2)cc1 [Example 1-17],1990 nM
4,O=C(Nc1ccncc1)c1cc(N(CC2CC2)C2CCCCC2)ncn1 [Example 1-49],107 nM
5,COCCNS(=O)(=O)c1ccc(NC(=O)c2cc(N(C)C3CCCCC3)ncn2)cc1 [Example 1-42],2280 nM
6,Cc1cc(S(N)(=O)=O)ccc1NC(=O)c1cc(OC2CCCCC2)ncn1 [Example 1-65],13300 nM
7,CCCN(CC1CC1)c1cc(C(=O)Nc2ccc(CNCCOC)cc2C)ncn1 [Example 1-95],821 nM
8,Cc1cc(O)ccc1NC(=O)c1cc(N(C)C2CCC(C)CC2)ncn1 (centres unmarked) [Example 1-32],610 nM
9,Cc1cc(O)ccc1NC(=O)c1cc(NC2CCCCCC2)ncn1 [Example 1-23],970 nM
10,CN(CC(=O)OC(C)(C)C)Cc1ccc(NC(=O)c2cc(N(CC3CC3)C3CCCCC3)ncn2)cc1 [Example 1-75],2690 nM
11,CCCN(CC1CC1)c1cc(C(=O)Nc2ccc(CN(C)CCO)cc2C)ncn1 [Example 1-96],391 nM
12,CCCN(CC1CC1)c1cc(C(=O)Nc2ccc3c(c2)CCNC3)ncn1 [Example 1-91],145 nM
13,COC(=O)C(C)(C)NCc1ccc(NC(=O)c2cc(N(CC3CC3)C3CCCCC3)ncn2)cc1 [Example 1-83],1160 nM
14,CCCN(CCC)c1cc(C(=O)Nc2ccc(CN)cc2)ncn1 [Example 1-72],497 nM
15,NCc1ccc(NC(=O)c2cc(N(CC3CC3)C3CCCCC3)ncn2)cc1 [Example 1-48],39 nM
16,Cc1cc(O)ccc1NC(=O)c1cc(N(C)C2CCCCC2)ncn1 [Example 1-21],660 nM

# The remaining lines, values ahead:
row,EC50,SMILES
1,202 nM,CCCN(CC1CC1)c1cc(C(=O)Nc2ccc(S(=O)(=O)NCCOC)cc2C)ncn1 [Example 1-106]
2,1320 nM,CCCN(CC1CC1)c1cc(C(=O)Nc2ccc3nn(CC(=O)N(C)C)cc3c2)ncn1 [Example 1-114]
3,238 nM,CCCN(CC1CC1)c1cc(C(=O)Nc2ccc(S(=O)(=O)NCCCC(=O)O)cc2C)ncn1 [Example 1-108]
4,6350 nM,CCCN(CC1CC1)c1cc(C(=O)Nc2ccc3nn(CC(N)=O)cc3c2)ncn1 [Example 1-118]
5,2480 nM,CCCN(CC1CC1)c1cc(C(=O)Nc2ccc(CN3CCC[C@@H]3COC)cc2C)ncn1 [Example 1-139]
6,807 nM,CCCN(CC1CC1)c1cc(C(=O)Nc2ccc(CN3CCC3)cc2C)ncn1 [Example 1-154]
7,1540 nM,CCCN(CC1CC1)c1cc(C(=O)Nc2cccc(-n3ccnc3C)c2)ncn1 [Example 1-144]
8,1050 nM,CCCN(CC1CC1)c1cc(C(=O)Nc2cccc(Cn3cccn3)c2)ncn1 [Example 1-148]
9,193 nM,CS(=O)(=O)c1ccc(NC(=O)c2cc(N(CC3CC3)C3CCCCC3)ncn2)cc1 [Example 1-112]
10,38 nM,CCCN(CC1CC1)c1cc(C(=O)Nc2cccc(-n3ccnc3)c2)ncn1 [Example 1-147]
11,596 nM,CCCN(CC1CC1)c1cc(C(=O)Nc2ccc3nn(CC(=O)OCC)cc3c2)ncn1 [Example 1-120]
12,1500 nM,CCCN(CC1CC1)c1cc(C(=O)Nc2ccc(S(=O)(=O)CCCC(=O)O)cc2)ncn1 [Example 1-124]
13,2760 nM,CCCN(CC1CC1)c1cc(C(=O)Nc2ccc3[nH]cnc3c2)ncn1 [Example 1-125]
14,517 nM,CCCN(CC1CC1)c1cc(C(=O)Nc2ccc(CNC(C)C(=O)O)cc2C)ncn1 (centres unmarked) [Example 1-104]
15,1410 nM,CCCN(CC1CC1)c1cc(C(=O)Nc2ccc(CN3CCC(O)CC3)cc2C)ncn1 [Example 1-140]
16,1230 nM,CCCN(CC1CC1)c1cc(C(=O)Nc2ccc(S(=O)(=O)N(C)CC(=O)O)cc2C)ncn1 [Example 1-102]
17,2040 nM,Cn1cnnc1-c1ccc(NC(=O)c2cc(N(CC3CC3)C3CCCCC3)ncn2)cc1 [Example 1-136]
18,1680 nM,CCOC(=O)CCCS(=O)(=O)c1ccc(NC(=O)c2cc(N(CC3CC3)C3CCCCC3)ncn2)cc1 [Example 1-131]
19,127 nM,Cc1cc(S(=O)(=O)N(C)CC(=O)O)ccc1NC(=O)c1cc(N(CC2CC2)C2CCCCC2)ncn1 [Example 1-101]
20,443 nM,CCCN(CC1CC1)c1cc(C(=O)Nc2ccc(CN3CCC(C(=O)O)CC3)cc2C)ncn1 [Example 1-138]
21,5050 nM,CCCN(CC1CC1)c1cc(C(=O)Nc2ccc(CS(=O)(=O)CCC(=O)OCC)cc2)ncn1 [Example 1-119]

row,EC50,SMILES
1,226 nM,O=C(O)CCS(=O)(=O)Cc1ccc(NC(=O)c2cc(N(CC3CC3)C3CCCCC3)ncn2)cc1 [Example 1-133]
2,3260 nM,CCCN(CC1CC1)c1cc(C(=O)Nc2ccc3c(cnn3CC(=O)O)c2)ncn1 [Example 1-116]
3,79 nM,CCCN(CC1CC1)c1cc(C(=O)Nc2cccc(-n3cncn3)c2)ncn1 [Example 1-143]
4,1120 nM,CCCN(CC1CC1)c1cc(C(=O)Nc2cccc(Cn3cncn3)c2)ncn1 [Example 1-152]
5,346 nM,O=C(Nc1ccc(Cn2cncn2)cc1)c1cc(N(CC2CC2)C2CCCCC2)ncn1 [Example 1-137]
6,268 nM,CCCN(CC1CC1)c1cc(C(=O)Nc2ccc(CC3COC(=O)N3)cc2)ncn1 (centres unmarked) [Example 1-150]
7,604 nM,CCCN(CC1CC1)c1cc(C(=O)Nc2ccc(N3CCOCC3)c(F)c2)ncn1 [Example 1-151]
8,2840 nM,CCCN(CC1CC1)c1cc(C(=O)Nc2ccc3c(cnn3CC(=O)N(C)C)c2)ncn1 [Example 1-115]
9,1070 nM,CCCN(CC1CC1)c1cc(C(=O)Nc2ccc3c(cnn3CC(N)=O)c2)ncn1 [Example 1-117]
10,594 nM,CCCN(CC1CC1)c1cc(C(=O)Nc2cccc3[nH]ncc23)ncn1 [Example 1-134]
11,55 nM,CCCN(CC1CC1)c1cc(C(=O)Nc2ccc(Cn3cncn3)cc2)ncn1 [Example 1-145]
12,481 nM,CCCN(CC1CC1)c1cc(C(=O)Nc2cccc(Cn3ccnc3)c2)ncn1 [Example 1-153]
13,1010 nM,CCCN(CC1CC1)c1cc(C(=O)Nc2ccc3nn(CC(=O)O)cc3c2)ncn1 [Example 1-121]
14,465 nM,CCCN(CC1CC1)c1cc(C(=O)Nc2ccc(CN3CCC(O)C3)cc2C)ncn1 (centres unmarked) [Example 1-142]
15,279 nM,CCCN(CC1CC1)c1cc(C(=O)Nc2ccc(-n3cncn3)cc2)ncn1 [Example 1-146]
16,567 nM,CCCN(CC1CC1)c1cc(C(=O)Nc2ccc(CNC)cc2C)ncn1 [Example 1-111]
17,2290 nM,CCCN(CC1CC1)c1cc(C(=O)Nc2ccc(CN3CCCC(CO)C3)cc2C)ncn1 (centres unmarked) [Example 1-141]
18,2340 nM,CCCN(CC1CC1)c1cc(C(=O)Nc2ccc(S(C)(=O)=O)cc2)ncn1 [Example 1-110]
19,3120 nM,CCCN(CC1CC1)c1cc(C(=O)Nc2ccc(CS(=O)(=O)CCC(=O)O)cc2)ncn1 [Example 1-135]
20,4360 nM,O=C(Nc1ccc(C(=O)O)c(F)c1)c1cc(N(CC2CC2)C2CCCCC2)ncn1 [Example 1-122]
21,706 nM,CCCN(CC1CC1)c1cc(C(=O)Nc2ccc(CN3CCCC3=O)cc2C)ncn1 [Example 1-98]

# — patent US9150519B2, “6-amino-pyrimidine-4-carboxamide derivatives and related compounds which bind to the sphingosine 1-phosphate (S1P) receptor for the treatment of multiple sclerosis” (MERCK SERONO SA, priority 2007, dated 2015)
